Test results from ChEMBL document CHEMBL2157977, “The antitumor agent doxorubicin binds to Fanconi anemia group F protein” (Bioorg Med Chem, 2012).
Activity calls are given as the source filed them. No cut-off for these calls is given here.

Columns and labels:
[1] = biological target: Fanconi anemia group D2 protein (Homo sapiens) (UniProt Q9BXW9); assay: Inhibition of CDDP-induced FANCD2 monoubiquitination in human HeLa cells at 9 uM after 18 hrs by Western blot analysis; format: cell-based
[2] = biological target: T1, Fanconi anemia group F protein (Homo sapiens) (UniProt Q9NPI8); assay: Binding affinity to human thymus flag-tagged full-length FANCF expressed in HEK293T cells after 10 mins by pull-down assay; format: cell-based; conditions: HEK-293T
T1 sequence (whole entry): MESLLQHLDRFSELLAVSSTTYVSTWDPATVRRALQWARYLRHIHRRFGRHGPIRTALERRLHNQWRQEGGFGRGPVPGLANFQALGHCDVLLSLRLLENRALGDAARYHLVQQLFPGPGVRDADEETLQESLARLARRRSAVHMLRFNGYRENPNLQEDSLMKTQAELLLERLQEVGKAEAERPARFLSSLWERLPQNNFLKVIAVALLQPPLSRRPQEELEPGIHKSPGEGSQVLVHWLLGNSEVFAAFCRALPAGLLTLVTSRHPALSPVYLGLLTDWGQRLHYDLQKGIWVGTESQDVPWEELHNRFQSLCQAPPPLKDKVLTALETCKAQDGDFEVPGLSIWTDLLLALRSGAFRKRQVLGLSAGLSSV

Sequence of Fanconi anemia group D2 protein (Homo sapiens) (Q9BXW9 whole entry): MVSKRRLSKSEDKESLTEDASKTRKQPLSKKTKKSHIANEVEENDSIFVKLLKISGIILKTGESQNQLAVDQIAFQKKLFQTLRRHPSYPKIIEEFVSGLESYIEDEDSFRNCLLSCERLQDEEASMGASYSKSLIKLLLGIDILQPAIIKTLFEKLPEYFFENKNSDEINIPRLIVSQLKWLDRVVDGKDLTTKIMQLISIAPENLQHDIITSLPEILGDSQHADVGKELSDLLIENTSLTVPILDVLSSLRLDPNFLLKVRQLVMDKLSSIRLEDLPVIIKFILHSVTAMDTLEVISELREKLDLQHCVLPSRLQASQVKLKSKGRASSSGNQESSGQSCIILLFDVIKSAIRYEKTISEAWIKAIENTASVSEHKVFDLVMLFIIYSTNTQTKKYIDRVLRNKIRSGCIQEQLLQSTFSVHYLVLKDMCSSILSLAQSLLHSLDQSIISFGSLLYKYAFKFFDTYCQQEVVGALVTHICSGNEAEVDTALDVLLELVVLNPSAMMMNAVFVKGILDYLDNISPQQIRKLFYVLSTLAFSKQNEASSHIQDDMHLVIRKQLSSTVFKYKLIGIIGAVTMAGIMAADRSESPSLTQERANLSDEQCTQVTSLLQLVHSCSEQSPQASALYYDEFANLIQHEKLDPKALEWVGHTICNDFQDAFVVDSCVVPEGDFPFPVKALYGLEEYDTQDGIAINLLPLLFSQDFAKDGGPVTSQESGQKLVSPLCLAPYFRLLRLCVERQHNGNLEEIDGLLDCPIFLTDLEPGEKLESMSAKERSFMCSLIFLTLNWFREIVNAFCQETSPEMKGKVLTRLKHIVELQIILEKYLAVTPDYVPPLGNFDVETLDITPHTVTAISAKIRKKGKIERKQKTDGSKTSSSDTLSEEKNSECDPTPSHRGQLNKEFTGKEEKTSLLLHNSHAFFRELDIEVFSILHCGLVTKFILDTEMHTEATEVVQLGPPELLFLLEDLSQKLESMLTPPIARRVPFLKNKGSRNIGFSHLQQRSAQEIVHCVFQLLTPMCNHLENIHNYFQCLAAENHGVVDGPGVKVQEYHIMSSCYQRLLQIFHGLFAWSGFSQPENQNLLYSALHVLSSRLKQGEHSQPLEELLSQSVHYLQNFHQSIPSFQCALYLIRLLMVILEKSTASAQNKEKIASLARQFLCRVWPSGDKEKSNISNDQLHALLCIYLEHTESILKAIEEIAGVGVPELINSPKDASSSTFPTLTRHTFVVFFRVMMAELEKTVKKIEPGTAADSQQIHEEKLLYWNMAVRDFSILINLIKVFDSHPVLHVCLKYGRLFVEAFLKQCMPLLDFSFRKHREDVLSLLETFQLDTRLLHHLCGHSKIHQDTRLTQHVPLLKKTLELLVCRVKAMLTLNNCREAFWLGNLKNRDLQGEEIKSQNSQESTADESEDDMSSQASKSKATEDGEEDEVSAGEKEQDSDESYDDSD

SMILES | inhibition [1] | Activity [2]
COc1cccc2c1C(=O)c1c(O)c3c(c(O)c1C2=O)C[C@@](O)(C(=O)CO)C[C@@H]3O[C@H]1C[C@H](N)[C@H](O)[C@H](C)O1 | Active | 
COc1cccc2c1C(=O)c1c(O)c3c(c(O)c1C2=O)C[C@@](O)(C(=O)CO)C[C@@H]3O[C@H]1C[C@H](NC(=O)CCCCCNC(=O)CCCC[C@@H]2SC[C@@H]3NC(=O)N[C@@H]32)[C@H](O)[C@H](C)O1 |  | Active
